Results taken from patent US6784175B2, “Use of substituted 1-amino-5-phenylpentane-3-ol and/or 1-amino-6-phenylhexane-3-ol compounds as medicaments” (Gruenenthal GmbH, priority 2000, dated 2004).
Where a name gives a salt, the structure may show the parent alone.

Legend:
[1] = tested on: (+)-MK801 binding site of the ionotropic NMDA receptor; assay: (3H)-(+)-MK801 receptor bonding test on rat cerebral membrane homogenates; settings: 1 nmol/l (3H)-(+)-MK801, rat brain membrane homogenate; for Percentage inhibition of (3H)-(+)-MK801 binding at 10 μM: 10 μmol/l compound, triple determinations; for Ki: calculated from IC50 by Cheng-Prusoff equation
Procedure: Research to determine the NMDA antagonistic effect of each compound in general formula I was carried out on cerebral membrane homogenates (homogenate of rat brain without cerebellum, pons and medulla oblongata taken from male Wistar rats (Charles River, Sulzfeld, Germany)).
For this purpose, after separating the cerebellum, pons and medulla oblongata, freshly prepared rat brains were macerated in 50 mmol/l of tris/HCl (pH 7.7) with a Polytron homogeniser (model PT3000, Kinematika AG, Littau, Switzerland) at 6000 revolutions per minute (rpm) for 1 minute with ice cooling and centrifuged for 15 minutes at 4° C. and 60,000 g. After decanting and discarding the supernatant, again placing in 50 mmol/l of tris/HCl (pH 7.7) and macerating the membrane pellet with a homogeniser at 2000 rpm for 1 minute, it was centrifuged again for 15 minutes at 4° C. and 60,000 g. The supernatant was again discarding and the membrane pellet homogenised (2000 rpm for 1 minute) in 50 mmol/l of tris/HCl (pH 7.7) and frozen in aliquots at −70° C.
For the receptor bonding test, each aliquot was defrosted and then centrifuged for 15 minutes at 4° C. and 60,000 g. After decanting and discarding the supernatant, the membrane pellet was taken up with bonding test buffer and homogenised (2000 rpm for 1 minute). The bonding test buffer was 5 mmol/l tris/HCl (pH 7.7) supplemented with 30 μmol/l of glycine and 100 μmol/l of glutamic acid.
1 nmol/l of (^3H)-(+)-MK801 ((5R, 10S)-(+)-5-methyl-10,11-dihydro-5H-dibenzo(a,d)cycloheptane-5,10-imine was used as a radioactively marked ligand (NET-972, NEN, Cologne Germany). The proportion of unspecific bonding was determined in the presence of 10 μmol/l of non-radioactively marked (+)-MK801 (RBI/Sigma, Deisenhofen, Germany). In further batches, each of the compounds of general formula I were added in series of concentrations and the displacement of the radioactive ligand out of its specific bond to the NMDA receptor determined. All the batches were subjected to triple determinations. The batches were each incubated for 40 minutes at 25° C. in a water bath and then harvested for determination of the radioactive ligand bound to the cerebral membrane homogenate by means of filtration through glass-fibre filters (GF/B) (Whatman GF/B, Hassel, Munich, Germany). The radioactivity retained by the glass-fibre filter discs was measured in a β counter (Packard TRI-CARB Liquid Scintillation Analyser 2000CA, Packard Instrument, Meriden, Conn. 06450, USA) after adding a scintillator (“Ready Protein” scintillator, Beckmann Coulter GmhH, Krefeld, Germany).
The percentage inhibition of the specific bonding of the ligand (^3H)-(+)-MK801 in the presence of 10 μmol/l of each compound of general formula I resulting from the triple batches is used as a measure of the affinity of the compound for the (+)-MK801 binding site of the ionotropic NMDA receptor. From batches with concentration series of these compounds of general formula I, the IC50 values (concentration of substituted compounds with 50% displacement of radioactive ligand out of its specific bond) were calculated in accordance with the law of mass action using non-linear regression. From these IC50 values, the Kj values were calculated in accordance with the Cheng-Prusoff equation (Y. Cheng, W. H. Prusoff, 1973, Biochem. Pharmacol., 22, pp 3099-3108).

SMILES: CN(C)C(c1ccccc1)C1CCCCC1(O)CCc1ccccc1.Cl (stereo not shown) [Example 1, 2-(dimethylaminophenylmethyl)-1-phenethylcyclohexanol, hydrochloride]
- melting point: 100 °C
- Percentage inhibition of (3H)-(+)-MK801 binding at 10 μM [1]: 56%
- Ki [1]: 3800 nM

SMILES: CN(C)C(c1ccccc1)C1CCCCC1(O)CCc1ccccc1F.Cl (stereo not shown) [Example 7, 2-(dimethylaminophenylmethyl)-1-[2-(2-fluorophenyl)ethyl]cyclohexanol, hydrochloride]
- melting point: 95 °C
- Percentage inhibition of (3H)-(+)-MK801 binding at 10 μM [1]: 91%
- Ki [1]: 1100 nM

SMILES: CN(C)C(c1ccccc1Cl)C1CCCCC1(O)CCc1cccc(F)c1.Cl (stereo not shown) [Example 11, 2-[(2-chlorophenyl)dimethylaminomethyl]-1-[2-(3-fluorophenyl)ethyl]cyclohexanol, hydrochloride]
- melting point: 120 to 126 °C
- Percentage inhibition of (3H)-(+)-MK801 binding at 10 μM [1]: 93%
- Ki [1]: 2100 nM

SMILES: CN(C)C(c1ccccc1Cl)C1CCCCC1(O)CCc1ccccc1.Cl (stereo not shown) [Example 2, 2-[(2-chlorophenyl)dimethylaminomethyl]-1-phenethylcyclohexanol, hydrochloride]
- melting point: 110 °C
- Percentage inhibition of (3H)-(+)-MK801 binding at 10 μM [1]: 95%
- Ki [1]: 1700 nM

SMILES: CN(C)C(c1ccccc1F)C1CCCCC1(O)CCc1ccccc1.Cl (stereo not shown) [Example 8, 2-[dimethylamino-(2-fluorophenyl)methyl]-1-phenethylcyclohexanol, hydrochloride]
- melting point: 172 to 174 °C
- Percentage inhibition of (3H)-(+)-MK801 binding at 10 μM [1]: 91%
- Ki [1]: 1600 nM

SMILES: COc1cccc(C(C2CCCCC2(O)CCc2ccccc2)N(C)C)c1.Cl (stereo not shown) [Example 4, 2-[dimethylamino-(3-methoxyphenyl)methyl]-1-phenethylcyclohexanol, hydrochloride]
- melting point: 90 °C
- Percentage inhibition of (3H)-(+)-MK801 binding at 10 μM [1]: 51%
- Ki [1]: 6200 nM

SMILES: CN(C)C(c1ccccc1)C1CCCCC1(O)CCc1cccc(Cl)c1.Cl (stereo not shown) [Example 13, 1-[2-(3-chlorophenyl)ethyl]-2-(dimethylaminophenylmethyl)cyclohexanol, hydrochloride]
- melting point: 95 °C
- Percentage inhibition of (3H)-(+)-MK801 binding at 10 μM [1]: 61%
- Ki [1]: 3100 nM

SMILES: Cc1ccccc1C(C1CCCCC1(O)CCc1ccccc1Cl)N(C)C (single isomer, unassigned; (-)) [Example 48, (−)-15-1-[2-(2-chlorophenyl)ethyl]-2-(dimethylamino-o-tolylmethylcyclohexanol), hydrochloride]
- Percentage inhibition of (3H)-(+)-MK801 binding at 10 μM ([1]; hydrochloride, 10 µM): 99%
- Ki ([1]; hydrochloride): 400 nM

SMILES: Cc1ccccc1CCC1(O)CCCCC1C(c1ccccc1Cl)N(C)C.Cl (stereo not shown) [Example 35, 2-[(2-chlorophenyl)dimethylaminomethyl]-1-(2-o-tolylethyl)cyclohexanol, hydrochloride]
- Percentage inhibition of (3H)-(+)-MK801 binding at 10 μM [1]: 93%
- Ki [1]: 1800 nM

SMILES: Cl.OC1(CCc2ccccc2)CCCCC1C(c1ccccc1)N1CCCCC1 (stereo not shown) [Example 14, 1-phenethyl-2-(phenylpiperidine-1-yl-methyl)cyclohexanol, hydrochloride]
- melting point: 127 °C
- Percentage inhibition of (3H)-(+)-MK801 binding at 10 μM [1]: 88%
- Ki [1]: 2800 nM

SMILES: CN(C)C(c1ccccc1F)C1CCCCC1(O)CCc1ccccc1Cl.Cl (stereo not shown) [Example 19, 1-[2-(2-chlorophenyl)ethyl]-2-(dimethylamino-(2-fluorophenyl)methyl]cyclohexanol, hydrochloride]
- melting point: 213 °C
- Percentage inhibition of (3H)-(+)-MK801 binding at 10 μM [1]: 102%
- Ki [1]: 800 nM

SMILES: Cc1ccccc1C(C1CCCCC1(O)CCc1cccc(Cl)c1)N(C)C.Cl (stereo not shown) [Example 26, 1-[2-(3-chlorophenyl)ethyl]-2-(dimethylamino-o-tolylmethyl)cyclohexanol, hydrochloride]
- Percentage inhibition of (3H)-(+)-MK801 binding at 10 μM ([1]; hydrochloride, 10 µM): 89%
- Ki ([1]; hydrochloride): 1300 nM

SMILES: CN(C)C(c1ccccc1)C1CCCCC1(O)CCCc1ccccc1.Cl (single isomer, unassigned; (-)) [Example 50, (−)-2-(dimethylaminophenylmethyl)1-(3-phenylpropyl)cyclohexanol, hydrochloride]
- Percentage inhibition of (3H)-(+)-MK801 binding at 10 μM ([1]; hydrochloride, 10 µM): 87%
- Ki ([1]; hydrochloride): 600 nM

SMILES: CN(C)C(c1ccccc1F)C1CCCCC1(O)CCCc1ccccc1.Cl (stereo not shown) [Example 44, 2-[dimethylamino-(2-fluorophenyl)methyl]-1-(3-phenylpropyl)cyclohexanol, hydrochloride]
- Percentage inhibition of (3H)-(+)-MK801 binding at 10 μM [1]: 91%
- Ki [1]: 1400 nM

SMILES: CN(C)C(c1ccccc1Br)C1CCCCC1(O)CCCc1ccccc1.Cl (stereo not shown) [Example 40, 2-[(2-bromophenyl)dimethylaminomethyl]-1-(3-phenylpropyl)cyclohexanol, hydrochloride]
- Percentage inhibition of (3H)-(+)-MK801 binding at 10 μM [1]: 82%
- Ki [1]: 1900 nM

SMILES: CN(C)C(c1ccccc1)C1CCCCC1(O)CCCc1ccccc1.Cl (stereo not shown) [Example 6, 2-(dimethylaminophenylmethyl)-1-(3-phenylpropyl)cyclohexanol, hydrochloride]
- melting point: 90 °C
- Percentage inhibition of (3H)-(+)-MK801 binding at 10 μM [1]: 74%
- Ki [1]: 2600 nM

SMILES: Cc1ccccc1C(C1CCCCC1(O)CCc1ccccc1Cl)N(C)C.Cl (stereo not shown) [Example 15, 1-[2-(2-chlorophenyl)ethyl]-2-(dimethylamino-o-tolylmethyl)cyclohexanol, hydrochloride]
- melting point: 190 to 194 °C
- Percentage inhibition of (3H)-(+)-MK801 binding at 10 μM [1]: 100%
- Ki ([1]; hydrochloride): 700 nM

SMILES: Cc1ccccc1C(C1CCCCC1(O)CCc1ccccc1F)N(C)C.Cl (stereo not shown) [Example 30, 2-(dimethylamino-o-tolylmethyl)-1-[2-(2-fluorophenyl)ethyl]cyclohexanol, hydrochloride]
- Percentage inhibition of (3H)-(+)-MK801 binding at 10 μM [1]: 105%
- Ki [1]: 300 nM

SMILES: Cc1ccccc1C(C1CCCCC1(O)CCc1ccccc1)N(C)C.Cl (stereo not shown) [Example 5, 2-(dimethylamino-o-tolylmethyl)-1-phenethylcyclohexanol, hydrochloride]
- melting point: 187 to 188 °C
- Percentage inhibition of (3H)-(+)-MK801 binding at 10 μM [1]: 93%
- Ki [1]: 1300 nM

SMILES: CN(C)C(c1ccccc1Br)C1CCCCC1(O)CCc1ccccc1Cl.Cl (stereo not shown) [Example 32, 2-[(2-bromophenyl)dimethylaminomethyl]-1-[2-(2-chlorophenyl)ethyl]cyclohexanol, hydrochloride]
- Percentage inhibition of (3H)-(+)-MK801 binding at 10 μM [1]: 96%
- Ki [1]: 700 nM

SMILES: CN(C)C(c1ccccc1)C1CCCCC1(O)CCc1ccccc1Cl.Cl (stereo not shown) [Example 12, 1-[2-(2-chlorophenyl)ethyl]-2-(dimethylaminophenylmethyl)cyclohexanol, hydrochloride]
- melting point: 152 °C
- Percentage inhibition of (3H)-(+)-MK801 binding at 10 μM [1]: 85%
- Ki [1]: 1500 nM

SMILES: CN(C)C(c1ccccc1Cl)C1CCCCC1(O)CCc1ccccc1F.Cl (single isomer, unassigned; (-)) [Example 52, (−)-2-[(2-chlorophenyl)dimethylaminomethyl]-1-[2-(2-fluorophenyl)ethyl]cyclohexanol, hydrochloride]
- Percentage inhibition of (3H)-(+)-MK801 binding at 10 μM ([1]; hydrochloride, 10 µM): 105%
- Ki ([1]; hydrochloride): 200 nM

SMILES: Cc1ccccc1C(C1CCCCC1(O)CCCc1ccccc1)N(C)C.Cl (stereo not shown) [Example 45, 2-(dimethylamino-o-tolylmethyl)1-(3-phenylpropyl)cyclohexanol, hydrochloride]
- Percentage inhibition of (3H)-(+)-MK801 binding at 10 μM [1]: 91%
- Ki [1]: 1800 nM

SMILES: CN(C)C(c1ccccc1Cl)C1CCCCC1(O)CCc1ccccc1F.Cl (single isomer, unassigned; (+)) [Example 53, (+)-2-[(2-chlorophenyl)dimethylaminomethyl]-1-[2-(2-fluorophenyl)ethyl]cyclohexanol, hydrochloride]
- Percentage inhibition of (3H)-(+)-MK801 binding at 10 μM ([1]; hydrochloride, 10 µM): 104%
- Ki ([1]; hydrochloride): 500 nM
